# Measured values from PubChem BioAssay AID493099 (Broad Institute, 2011).
# Activity calls are given as the source filed them. The rule behind the calls is not given here.
# Tested on: not listed separately
# Assay: PubChem AID 493099
# Conditions: NIH-3T3 viability with fluconazole, Alamar Blue, 48 h; at 2.6 µM (top of the series)
row,SMILES,"activity change, negative = toxicity"
1,COc1ccc2c(c1)c1nc3n(c(=O)c1n2CC(=O)N1CCC(C)CC1)CCS3,18.1% (inactive)

# Same assay, conditions: NIH-3T3 viability with fluconazole, Alamar Blue, 48 h; at 26 µM (top of the series)
row,SMILES,"activity change, negative = toxicity"
1,O=C(C1CCCCC1)N1CCN(c2ccccn2)CC1,-19.3% (inactive)
2,COCCC(=O)N1CCN(c2ccccn2)CC1,-16% (inactive)
3,COc1cccnc1N1CCN(C(=O)c2ccc(Cl)cc2)CC1,-12.3% (inactive)
4,O=C(O)c1c2ccccc2nn1Cc1ccc(Cl)cc1,-7.54% (inactive)
5,O=C(c1ccc(Cl)cc1)N1CCN(c2ccc(C(F)(F)F)cn2)CC1,-6.38% (inactive)
6,O=C(O)c1nn(Cc2ccc(Cl)cc2)c2ccccc12,-9.65% (inactive)
7,N#Cc1ccc(N2CCN(C(=O)c3ccc(Cl)cc3)CC2)nc1,-15.6% (inactive)
8,N#Cc1ccc(C(=O)N2CCN(c3ccccn3)CC2)cc1,4.67% (inactive)
9,O=C(c1ccc(Cl)cc1)N1CCN(c2ncccc2C(F)(F)F)CC1,-21.5% (inactive)
10,O=C(Cn1c2ccccc2c2ccncc21)N1CCCCC1,-31.2% (inactive)
11,O=C(Cn1c2ccccc2c2nc3n(c(=O)c21)CCCS3)c1ccc(F)cc1,-8.47% (inactive)
12,O=C(c1ccc(Cl)cc1)N1CCN(c2nc3ccccc3s2)CC1,-24% (inactive)
13,CCCNC(=O)Cn1nc(-c2ccccc2)c2ccccc21,-5.82% (inactive)
14,CC1CCN(C(=O)Cn2c3ccccc3c3nc4n(c(=O)c32)CCCS4)CC1,-25.8% (inactive)
15,COC(=O)Cn1nc(-c2ccc(C)cc2)c2ccccc21,0.677% (inactive)
16,COC(=O)Cn1nc(-c2ccc(Cl)cc2)c2ccccc21,-11% (inactive)
17,COC(=O)Cn1nc(C)c2ccccc21,-5.29% (inactive)
18,O=C(Cn1nc(C(=O)N2CCCCC2)c2ccccc21)N1CCOCC1,-2.32% (inactive)
19,O=C(O)Cn1nc(-c2ccccc2)c2ccccc21,-27.1% (inactive)
20,COc1ccc2c(c1)c1nc3n(c(=O)c1n2CC(=O)N1CCC(Cc2ccccc2)CC1)CCS3,-12% (inactive)
21,O=C(Cn1c2ccccc2c2nc3n(c(=O)c21)CCS3)NCCc1ccc(Cl)cc1,-7.62% (inactive)
22,COC(=O)Cn1c(-c2ccccc2)nc2ccccc21,-4.41% (inactive)
23,CC1CCN(C(=O)Cn2c3ccccc3c3nc4n(c(=O)c32)CCS4)CC1,-20.3% (inactive)
24,CCN(CC)C(=O)Cn1c2ccccc2c2nc3n(c(=O)c21)CCS3,-27% (inactive)

row,SMILES,"activity change, negative = toxicity"
1,O=C(c1ccccc1Cl)N1CCN(c2ccccn2)CC1,-7.93% (inactive)
2,O=C(Cn1c2ccc(F)cc2c2nc3n(c(=O)c21)CCS3)N1CCCC1,-34% (inactive)
3,CCCNC(=O)Cn1nc(-c2ccccc2)c2cc(Cl)ccc21,-7.48% (inactive)
4,COc1ccc(C(=O)N2CCN(c3ccccn3)CC2)cc1,-22.2% (inactive)
5,O=c1c2[nH]c3ccccc3c2nc2n1CCS2,-21.3% (inactive)
6,COC(=O)Cn1nc(-c2ccccc2)c2ccccc21,-16.9% (inactive)
7,O=C(c1cccc(Cl)c1)N1CCN(c2ccccn2)CC1,-24.6% (inactive)
8,Cc1nn(S(C)(=O)=O)c2ccccc12,-23.9% (inactive)
9,Cc1ccc(C(=O)N2CCN(c3ccccn3)CC2)cc1,5.98% (inactive)
10,O=C(Cn1c2ccccc2c2nc3n(c(=O)c21)CCS3)N1CCCC1,-17.5% (inactive)
11,c1ccc(-c2n[nH]c3ccccc23)cc1,-5.62% (inactive)
12,CC1CCN(C(=O)Cn2c3ccc(F)cc3c3nc4n(c(=O)c32)CCCS4)CC1,-15.8% (inactive)
13,CCOC(=O)c1nn(Cc2ccc(Cl)cc2)c2ccccc12,-28.4% (inactive)
14,COC(=O)Cn1nc(-c2ccccc2)c2cc(Cl)ccc21,-7.62% (inactive)
15,N#Cc1cccnc1N1CCN(C(=O)c2ccc(Cl)cc2)CC1,6.33% (inactive)
16,O=c1c2[nH]c3ccc(F)cc3c2nc2n1CCS2,7.11% (inactive)
17,Cc1cccc(N2CCN(C(=O)c3ccc(Cl)cc3)CC2)n1,-19.6% (inactive)
18,O=C(Cn1c2ccc(F)cc2c2nc3n(c(=O)c21)CCS3)N1CCCCCC1,-19.1% (inactive)
19,O=C(Cn1nc(-c2ccccc2)c2ccccc21)N1CCc2ccccc2C1,-10.2% (inactive)
20,CNC(=O)Cn1nc(-c2ccccc2)c2ccccc21,-11.1% (inactive)
21,CCCCC(=O)N1CCN(c2ccccn2)CC1,-7.03% (inactive)
22,CCOC(=O)c1c2ccccc2nn1Cc1ccc(Cl)cc1,3.93% (inactive)
23,CC(C)C(=O)N1CCN(c2ccccn2)CC1,7.76% (inactive)
24,Cc1ccnc(N2CCN(C(=O)c3ccc(Cl)cc3)CC2)c1,-11.8% (inactive)

# Tested on: NIH-3T3 viability with fluconazole, Alamar Blue, 48 h
# Assay: PubChem AID 493099
# Conditions: not given
row,SMILES,AC50
1,COc1ccc(NC(=O)Cn2c3ccccc3c3nc4n(c(=O)c32)CCS4)cc1,6.04 µM
2,O=C(Cn1nc(-c2ccccc2)c2cc(Cl)ccc21)N1CCOCC1,> 26 µM (inactive)
3,CCN(CC)C(=O)Cn1c2ccccc2c2nc3n(c(=O)c21)CCS3,> 26 µM (inactive)
4,O=C(Cn1c2ccccc2c2nc3n(c(=O)c21)CCS3)N1CCCC1,19.7 µM
5,Cc1ccc(N2CCN(C(=O)c3ccc(Cl)cc3)CC2)nc1,> 26 µM (inactive)
